The record followed here is patent publication US7488716B2 (priority 2001, dated 2009).

Where a SMILES comes first, the peptide text is derived from it. Where no end group is shown, it is not given here. The star is where a group is joined. Palmitoyl = CCCCCCCCCCCCCCCC(=O)*

The test system of one experiment is perfused rat islets. Description: Insulin secretion by perfused rat islets. The format is cell-based. As to conditions: 50 nM peptide, 8 mM glucose. The protocol: Sprague Dawley rats (275-320 g) were used as the source of donor islets. Briefly, the pancreas was filled with 10 ml of cold reconstituted Liberase RI (Boehringer Manheim), harvested and incubated with additional 5 ml enzyme solution in water bath for 30 minutes. Tissue suspension was washed twice with cold 10% FBS/Hanks buffer (Gibco), resuspended in 8 ml 25% ficoll (Sigma) and then layered with 5 ml each of 23%, 20% and 11% ficoll. The islets in the 20% layer after centrifugation were removed, washed twice with cold 10% FBS/Hank buffer and resuspended in 10% FBS/RPMI 1640 media (Sigma).
Insulin secretion of perfused rat islets mediated by some peptides of the invention was measured as follows. The bi-phasic responses of insulin release stimulated by these polypeptides were tested by islet perfusion. Fifty islets were loaded in the perifusion chamber and perifused with HEPES-KRB containing 3 mM glucose at 37° C. After 60 min, islets were exposed to buffer containing 8 mM glucose with or without peptide (50 nM) and perifused for another 30 min. Fractions of perifusate were collected at 1 or 5 minute intervals for insulin determination. Insulin was measured using an ELISA kit (Alpco Diagnostics, Windham, N.H.).

Experiment [1] concerns the target T1, GLP-1 receptor (Rattus norvegicus, UniProt P32301).
T1 construct: endogenous in cells; host or cells: RINm5F cells
T1 sequence (P32301 22-463): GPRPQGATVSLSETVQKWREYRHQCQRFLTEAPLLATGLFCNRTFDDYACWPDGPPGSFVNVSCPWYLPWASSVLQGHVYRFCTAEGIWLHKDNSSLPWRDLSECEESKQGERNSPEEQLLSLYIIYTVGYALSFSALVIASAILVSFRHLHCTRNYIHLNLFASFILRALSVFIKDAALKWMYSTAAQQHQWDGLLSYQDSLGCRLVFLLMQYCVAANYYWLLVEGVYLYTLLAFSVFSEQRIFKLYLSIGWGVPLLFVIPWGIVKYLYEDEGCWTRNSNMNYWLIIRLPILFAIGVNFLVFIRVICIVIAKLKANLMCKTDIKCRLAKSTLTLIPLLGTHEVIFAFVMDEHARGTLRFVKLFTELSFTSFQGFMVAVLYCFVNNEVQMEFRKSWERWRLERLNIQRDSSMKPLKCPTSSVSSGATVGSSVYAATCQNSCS
Put plainly: Peptide signaling through GLP-1 receptor, cAMP scintillation proximity assay in RINm5F cells. The format is cell-based. To be noted: for GLP1 Relative Potency: EC50 of native GLP-1 (7-36) divided by EC50 of polypeptide x 100, cAMP in RINm5F cells. As for the experimental part: The media was removed and the cells were washed twice with PBS. […] For assay of peptides conjugated with fatty acid, the BSA was omitted from the incubation buffer. The incubation buffer was removed, and the cells were lysed in the lysis reagent provided with the cAMP Scintillation Proximity Assay (SPA) direct screening assay system (Amersham Pharmacia Biotech Inc, Piscataway, N.J.). The amount of cAMP (in pmol) present in the lysates was determined following instructions provided with this kit.
The amount of cAMP (in pmol) produced at each concentration of peptide was plotted and analyzed by nonlinear regression using Prizm software to determine the EC50 for each peptide.

In experiment [2] the test system is dispersed rat islet cells. Description: Insulin secretion from dispersed rat islet cells. The format is cell-based. As to conditions: 50 nM peptide, fold over control. The protocol:
Insulin secretion of dispersed rat islets mediated by a number of peptides of the invention was measured as follows. Islets of Langerhans were isolated from SD rats (200-250 g) through a digestion procedure using collagenase. Dispersed islet cells were prepared through treatment with trypsin, seeded into 96 V-bottom plates and pelleted. Cells were cultured overnight in media. Media was aspirated and the cells were pre-incubated with Krebs-Ringer-HEPES buffer containing 3 mM glucose for 30 minutes at 37° C. Pre-incubation buffer was removed and cells were stimulated with Krebs-Ringer-HEPES buffer containing the appropriate glucose concentration (e.g., 8 mM), with and without peptides for an appropriate time at 37° C. […] A portion of supernatant was removed and its insulin content was measured by SPA. The results are expressed as fold over control (FOC). At a concentration of 50 nM, the polypeptide having an amino acid sequence shown in SEQ ID NO:27 increased insulin secretion from dispersed islet cells approximately 3-fold.

The test system of experiment [3] is glucagon-mediated elevation in blood glucose. Description: Glucagon-stimulated glucose production in fed Balb/C mice. The format is in vivo.
Description: The change in glucose over the 15 minutes was calculated for each mouse.
Experiment [4] can be described thus: Intraperitoneal glucose tolerance testing (IPGTT) in rats or mice. The format is in vivo. To be noted: ipGTT in mice 3 hours post dosing with 100 μg/kg peptide. As for the experimental part:
Blood glucose levels during intraperitoneal glucose tolerance testing in rats or mice by some polypeptides of the invention were measured as follows. The in vivo activity of the polypeptides of the invention when administered subcutaneously was examined in rats or mice. Rats or mice fasted overnight were given a subcutaneous injection of control or peptide (100 μg/kg). Basal blood glucose was measured prior to administration of peptides or three or 17 hours after administration of derivatized peptides, and the rats or mice were given 2 g/kg of glucose intraperitoneally. Blood glucose was measured again after 15, 30 and 60 minutes in rats or 30 and 60 minutes in mice.

For experiment [5], the target named is T1, GLP-1 receptor. Put plainly: Competitive binding of peptide to the GLP-1 receptor in RINm5F cell plasma membranes (125I GLP-1). As to conditions: read-out: GLP1 RIN IC50. As for the experimental part: Flasks of RINm5F cells were washed with PBS, scraped in 20 mM Hepes-1 mM EDTA-250 mM sucrose buffer containing protease inhibitors (HES) and homogenized in a dounce homogenizer followed by repeated resuspension through a 23 gauge needle. Unbroken cells and nuclei were removed by centrifugation at 500×g for 5 minutes. The pellet was resuspended in HES buffer using a 23 gauge needle and the centrifugation was repeated. The supernatants from the two spins were combined and centrifuged at 40,000×g for 20 min. The resulting plasma membrane pellet was resuspended in HES buffer using a 23 gauge needle followed by a 25 gauge needle. Membranes were stored at −80° C. until use.
Competitive binding of some polypeptides of the invention to RINm5F cell plasma membranes was measured as follows. Ninety-six-well GF/C filtration plates (Millipore, Bedford, Mass.) were blocked with 0.3% PEI for at least one hour and washed twice with binding buffer consisting of 20 mM Tris, 2 mM EDTA, pH 7.5, 1 mg/ml BSA, and 1 mg/ml bacitracin. […] The plates were dried, scintillant was added to each well, and cpm per well determined using a Wallac Microbeta counter.

Another experiment has as its target T2, glucagon receptor (Rattus norvegicus, UniProt P30082).
T2 construct: glucagon receptor present in the plasma membranes isolated from rat liver; from tissue; host or cells: rat liver plasma membranes
Description: Competitive binding of peptide to the glucagon receptor in rat liver plasma membranes (125I glucagon). As for the experimental part:
The wet weight of the livers was determined and the tissue minced in 5 volumes of ice cold TES buffer and a slurry prepared using a polytron. All buffers and spins were kept at 4° C. The slurry was further homogenized using three strokes of a handheld dounce homogenizer. The homogenate was passed through several layers of cheesecloth and spun at 25,000×g for 10 minutes. Pellets were homogenized in 22.1 ml TES buffer using 10 strokes of a handheld dounce homogenizer. Twenty-seven point nine milliliters of 2.4 M sucrose in TE was added and mixed well. The homogenate was distributed among several tubes, and each tube was overlaid with 7 ml of TES buffer. The tubes were spun at 120,000×g for 60 minutes. The plasma membranes were removed from the interface that formed during the spin, diluted in TES and concentrated using a 15 minute spin at 200,000×g. The resulting pellet was again homogenized in 9.8 ml TES buffer, combined with 10.3 ml 2.4M sucrose, overlaid with 7 ml TES, and centrifuged at 180,000×g for 30 min. […] The final pellet was resuspended in TES. Plasma membranes were stored at −80° C. until ready for use.
Competitive binding of some polypeptides of the invention to rat liver plasma membranes was measured as follows. Ninety-six-well GF/C filtration plates (Millipore, Bedford, Mass.) were blocked with 0.1% PEI for at least one hour and washed twice with binding buffer consisting of 20 mM Tris, 2 mM EDTA, pH 7.5, 1 mg/ml BSA, and 1 mg/ml bacitracin. […] The plates were dried, scintillant was added to each well, and cpm per well determined using a Wallac Microbeta counter.

T2 sequence (P30082 27-485): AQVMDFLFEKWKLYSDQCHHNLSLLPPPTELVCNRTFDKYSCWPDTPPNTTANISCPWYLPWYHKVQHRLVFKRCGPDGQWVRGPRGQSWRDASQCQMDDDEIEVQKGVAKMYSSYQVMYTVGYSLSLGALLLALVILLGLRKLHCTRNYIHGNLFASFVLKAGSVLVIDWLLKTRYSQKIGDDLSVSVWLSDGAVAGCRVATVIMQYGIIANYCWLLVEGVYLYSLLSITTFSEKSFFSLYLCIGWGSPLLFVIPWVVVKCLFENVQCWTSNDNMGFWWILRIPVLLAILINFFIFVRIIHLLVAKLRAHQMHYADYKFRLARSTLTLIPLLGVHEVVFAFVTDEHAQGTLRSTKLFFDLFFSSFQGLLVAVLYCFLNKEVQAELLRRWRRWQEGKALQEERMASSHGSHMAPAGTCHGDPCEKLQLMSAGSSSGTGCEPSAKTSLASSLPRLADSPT

`CC[C@H](C)[C@H](NC(=O)[C@H](Cc1ccccc1)NC(=O)[C@H](CCC(=O)O)NC(=O)[C@H](CCCCN)NC(=O)[C@H](C)NC(=O)[C@H](C)NC(=O)[C@H](CCC(N)=O)NC(=O)CNC(=O)[C@H](CCC(=O)O)NC(=O)[C@H](CC(C)C)NC(=O)[C@H](Cc1ccc(O)cc1)NC(=O)[C@H](CO)NC(=O)[C@H](CO)NC(=O)[C@@H](NC(=O)[C@H](CC(=O)O)NC(=O)[C@H](CO)NC(=O)[C@@H](NC(=O)[C@H](Cc1ccccc1)NC(=O)[C@@H](NC(=O)CNC(=O)[C@H](CCC(=O)O)NC(=O)[C@H](C)NC(=O)[C@@H](N)Cc1c[nH]cn1)[C@@H](C)O)[C@@H](C)O)C(C)C)C(=O)N[C@@H](C)C(=O)N[C@@H](Cc1c[nH]c2ccccc12)C(=O)N[C@@H](CC(C)C)C(=O)N[C@H](C(=O)N[C@@H](CCCCN)C(=O)NCC(=O)N[C@@H](CCCNC(=N)N)C(N)=O)C(C)C` [GLP-1, reference compound]: the “Increase of insulin secretion from perfused islets” value in the experiment with perfused rat islets was “approximately 2 fold”.
As to “HSQGTFTSDYARYLDARRAREFIKWLVRGRC(43kD) (HSQGTFTSDYARYLDARRAREFIKWLVRGRC(PEG 43kD); listed as Homo sapiens) [G4185, 43kD PEG linked to the cysteine residue]”, the “GLP1 Relative Potency” value with GLP-1 receptor [1] is reported as 0.7%. Moreover, the “% GLP1 max” value in the experiment with GLP-1 receptor [1] (maximal cAMP activity relative to native GLP-1 (7-36), RINm5F cells) was 98.3%. The “Increase of insulin secretion from dispersed islet cells” value in experiment [2] is reported as “approximately 3 fold”. In addition, in experiment [3] (Balb/C mice, 10 μg/kg glucagon, 100 μg/kg peptide sc 17 h before), the “% Inhibition” value was 31%. Besides, in experiment [3] (Balb/C mice, 15 min after 10 μg/kg iv glucagon), the “Glucose 15 min” value was 150 mg/dL. Besides, the “Glucose Delta (15 − 0)” value in experiment [3] (Balb/C mice, change over 15 min after glucagon) was 75 mg/dL. Moreover, the “Glucose -Vehicle delta” value in experiment [3] (Balb/C mice, delta minus vehicle group delta) amounted to 59 mg/dL. The “% of 10 μg/kg Glucagon” value in experiment [3] (Balb/C mice, glucose change relative to glucagon alone) was 69%. Moreover, the “Glucose 0 min” value in experiment [3] (Balb/C mice, just prior to 10 μg/kg iv glucagon, peptide 100 μg/kg sc 17 h before) turned out to be 75 mg/dL. Further, the “In vivo % Decrease glucagon stimulated blood glucose” value in experiment [3] (glucagon challenge in mice 17 hours post dosing with 100 μg/kg peptide) is listed as 31%. Also, the “In vivo Decrease IpGTT AUC” value in experiment [4] stood at 36%.
For `CCCCCCCCCCCCCCCC(=O)NCCCC[C@H](NC(=O)[C@H](C)NC(=O)[C@H](CCCNC(=N)N)NC(=O)[C@H](CCCNC(=N)N)NC(=O)[C@H](C)NC(=O)[C@H](CC(=O)O)NC(=O)[C@H](CC(C)C)NC(=O)[C@H](Cc1ccc(O)cc1)NC(=O)[C@H](CCCCN)NC(=O)[C@H](C)NC(=O)[C@H](Cc1ccc(O)cc1)NC(=O)[C@H](CC(=O)O)NC(=O)[C@H](CO)NC(=O)[C@@H](NC(=O)[C@H](Cc1ccccc1)NC(=O)[C@@H](NC(=O)CNC(=O)[C@H](CCC(N)=O)NC(=O)[C@H](CO)NC(=O)[C@@H](N)Cc1c[nH]cn1)[C@@H](C)O)[C@@H](C)O)C(=O)N[C@@H](CCC(=O)O)C(=O)N[C@@H](Cc1ccccc1)C(=O)N[C@H](C(=O)N[C@@H](C)C(=O)N[C@@H](Cc1c[nH]c2ccccc12)C(=O)N[C@@H](CC(C)C)C(=O)N[C@H](C(=O)N[C@@H](CCCCN)C(=O)NCC(=O)N[C@@H](CCCNC(=N)N)C(N)=O)C(C)C)[C@@H](C)CC` [G87] (H-HSQGTFTSDYAKYLDARRAK(Palmitoyl)EFIAWLVKGR-NH2; N-terminus assumed), the results for the IC50 on GLP-1 receptor [5] and on glucagon receptor were 98.6 nM and 620 nM, respectively. In addition, on GLP-1 receptor [1], the “GLP1 Relative Potency” value is reported as 6.1%. Besides, the Emax at GLP-1 receptor [1] (RIN-m5F, read-out: % GLP1 max) was found to be 100%. The “In vivo Decrease IpGTT AUC” value in experiment [4] came to 13%.
